Test results from publication PMC5740082, “Identification of a CARM1 Inhibitor with Potent In Vitro and In Vivo Activity in Preclinical Models of Multiple Myeloma” (Scientific Reports, 2017).
“And” between values parts separate entries of the source, which are not always exact repeats. Equal values may be shown once. Read-outs that look alike come from different tables or passages of the source.

Tests used:
[1] = Hepatocyte stability; assay type: in vitro ADME; settings: 1 µM
Experimental: (§1) Hepatocyte stability, plasma protein binding and cytochrome P450 assays were performed using standard procedures. Details can be found in Supplementary Methods. […]
where K I and K J are th e inhibition constants for I and J , respectivel y, and alpha is a constant describing the effect of one inhibitor on the binding of another inhibitor 8.
Reversibility experiments were performed in assay buffer lacking bovine skin gelatin. CARM1 […]
mixture was purified using pre-equilibrated 0.5 mL Zeba (7MWCO) spin columns (Thermo Fisher) following manufacturer ’s instructions. CARM1 was diluted to 0.5 nM in an assay reaction mixture using previously described conditions and activity was measured over 2 hours.
Proteins were kept at 4 °C for further activit y testing. Similar results were also obtained when […]
Methyltransf erase cros s screening panel […]
gen eral p rocedu res f rom Knutson et al.9
In cell w estern assay f or detection of asymmetric di -methyl PABP1 an d DNA content RKO cells (ATCC) were maintained in growth medium (DMEM/Glutamax medium supplemented with 10% v/v heat inactivated fetal bovine serum and 100 units/mL penicillin-streptom ycin) and cultured at 37 °C under 5% CO2. Cells were seeded in assay medium at a concentration of 30,000 cells per m L to a pol y -D-l ys ine coated 384 well culture plate with 50 µ L per well. […]

[2] = biological target: T1, CYP1A2 (Homo sapiens, UniProt P05177); assay: Cytochrome P450 inhibition; assay type: in vitro ADME; settings: human liver microsomes, tested up to 25 µM
T1 construct: with human liver microsomes; from tissue; host or cells: human liver microsomes
Experimental: as §1
(§2) Cytochrome P450 Inhibition (IC50 Determination) […]
(§3) with human liver microsomes (0.1 to 1 mg/m L) and NADPH (1 mM) in the presence of specific probe substrates at 37°C. Probe substrates and incubation times were: phenacetin (30 µM, 5 min), tolbutamide (120 µM, 60 min), mephenytoi n (25 µM, 60 min) and dextromethorphan (5 µM, 5 min) for CYP1A2, CYP2C9, CYP2C19 and CYP2D6, respectivel y. For CYP3A4, midazolam (2.5 µM, 5 min) andtestosterone (50 µM, 5 min) were used as probe substrates. […]
(§4) isoform. All reactions were terminated b y addition of methanol prior to cent rifugation and addition of internal standard to the supernatants. For CYP2C9, CYP2C19, CYP2D6 and CYP3A4 (midazolam) incubations, the supernat ants were combined for the simultaneous anal ysis o f 4-h ydrox ytol butamide, 4- hydrox ymephenytoin, dextrorphan and 1-hydrox ymidazolam b y LC-MS/MS. For the CYP1A2 and CYP3A4 (testosterone) incubations, the supernatants were anal yzed individuall y for acetaminophen and 6ß-h ydrox ytestosterone b y LC -MS/MS. A decrease i n the formation of the metabolites compared to vehicle control was used to calculate an IC50 value.

[3] = biological target: T2, CYP2C19 (Homo sapiens, UniProt P33261); assay: Cytochrome P450 inhibition; assay type: in vitro ADME; settings: human liver microsomes, tested up to 25 µM
T2 construct: with human liver microsomes; from tissue; host or cells: human liver microsomes
Experimental: as §1, §2, §3, §4

[4] = biological target: T3, CYP2C9 (Homo sapiens, UniProt P11712); assay: Cytochrome P450 inhibition; assay type: in vitro ADME; settings: human liver microsomes, tested up to 25 µM
T3 construct: with human liver microsomes; from tissue; host or cells: human liver microsomes
Experimental: as §1, §2, §3, §4

[5] = biological target: T4, CYP2D6 (Homo sapiens, UniProt P10635); assay: Cytochrome P450 inhibition; assay type: in vitro ADME; settings: human liver microsomes, tested up to 25 µM
T4 construct: with human liver microsomes; from tissue; host or cells: human liver microsomes
Experimental: as §1, §2, §3, §4

[6] = biological target: T5, CYP3A4 (Homo sapiens, UniProt P08684); assay: Cytochrome P450 inhibition; assay type: in vitro ADME; settings: human liver microsomes, tested up to 25 µM
T5 construct: with human liver microsomes; from tissue; host or cells: human liver microsomes
Experimental: as §1, §2, §3, §4

[7] = tested on: 40 protein kinases, lipid kinases and kinase mutants; assay: KinaseProfiler screen (Millipore); assay type: biochemical; settings: 10 μM
[8] = Pharmacokinetic study in rat
Experimental: An additional group of rats, cannulated in both the jugular and portal veins were dosed by oral gavage (10 mg/kg, in 0.5% methylcellulose in water). Approximately 110 μL of blood was taken from the animals by retro-orbital bleeding (mouse), tail vein (rat i.v.) or both jugular and portal vein sampling (rat p.o.) at pre-specified time intervals. The 2 h samples were split for parallel determination of blood and plasma concentration (ex vivo ratio). Blood samples were collected into K2-EDTA tubes and centrifuged to obtain plasma.

[9] = tested on: PABP1 and SmB methylation in NCI-H929 cells; assay: Western blot of cellular methyl marks, NCI-H929; settings: Homo sapiens, NCI-H929, 96 h
Experimental: Methylation changes were measured at the well-characterized CARM1 substrates PABP1 and SmB[1],[10]. Changes in overall levels of asymmetric dimethyl arginine (aDMA) were assessed with an antibody that detects a generic aDMA motif. Levels of methylated analytes were quantified by densitometry and ratios of methylated to total protein were calculated to determine the cell biochemical IC50 values.
Cultured cells in linear/log phase growth were split to a seeding density of 2e5 cells/mL in 2–20mLs of media, depending on the yield required at the end of the growth period. Compound was diluted in DMSO and added to each culture vessel with a final DMSO concentration of 0.2%. Cells were allowed to grow for 96 hours. At the conclusion of each treatment period, cells were harvested by centrifugation (5 minutes, 1200 rpm), and cell pellets were rinsed once with PBS before being frozen on dry ice pending further processing.
Quantification of Western blots was performed using infra-red emitting secondary antibodies and detection with an ODYSSEY infrared imaging system.

[10] = Sprague-Dawley, rat, plasma, po, 10 mg/kg
[11] = male, Sprague-Dawley, rat, plasma, iv, 2 mg/kg

T5 sequence (P08684 whole entry): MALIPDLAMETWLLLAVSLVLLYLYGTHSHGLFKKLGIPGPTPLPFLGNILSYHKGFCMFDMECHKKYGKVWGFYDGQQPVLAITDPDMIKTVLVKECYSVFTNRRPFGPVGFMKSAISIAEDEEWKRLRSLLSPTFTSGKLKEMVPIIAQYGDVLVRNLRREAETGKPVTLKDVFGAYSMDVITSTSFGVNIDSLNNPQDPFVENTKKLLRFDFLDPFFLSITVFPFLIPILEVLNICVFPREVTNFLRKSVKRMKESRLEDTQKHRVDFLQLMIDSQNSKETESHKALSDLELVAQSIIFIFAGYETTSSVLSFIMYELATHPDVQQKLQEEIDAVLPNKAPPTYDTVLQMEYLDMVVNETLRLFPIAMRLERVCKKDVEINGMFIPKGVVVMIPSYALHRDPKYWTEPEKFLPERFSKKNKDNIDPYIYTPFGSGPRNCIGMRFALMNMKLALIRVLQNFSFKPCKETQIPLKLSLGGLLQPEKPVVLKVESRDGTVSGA
T3 sequence (P11712 whole entry): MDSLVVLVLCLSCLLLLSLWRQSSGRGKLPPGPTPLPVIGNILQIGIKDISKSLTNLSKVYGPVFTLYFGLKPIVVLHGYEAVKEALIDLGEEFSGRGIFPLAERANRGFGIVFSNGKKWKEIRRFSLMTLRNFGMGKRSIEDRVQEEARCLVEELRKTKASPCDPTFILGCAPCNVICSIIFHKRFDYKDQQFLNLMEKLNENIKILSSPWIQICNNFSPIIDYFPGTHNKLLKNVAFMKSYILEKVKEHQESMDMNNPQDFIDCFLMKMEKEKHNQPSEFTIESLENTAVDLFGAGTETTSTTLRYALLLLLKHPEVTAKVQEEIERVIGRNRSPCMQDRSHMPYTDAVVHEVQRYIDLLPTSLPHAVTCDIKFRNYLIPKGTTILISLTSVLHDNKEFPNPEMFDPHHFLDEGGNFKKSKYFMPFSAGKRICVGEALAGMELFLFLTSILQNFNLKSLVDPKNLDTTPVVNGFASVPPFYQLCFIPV
T2 sequence (P33261 whole entry): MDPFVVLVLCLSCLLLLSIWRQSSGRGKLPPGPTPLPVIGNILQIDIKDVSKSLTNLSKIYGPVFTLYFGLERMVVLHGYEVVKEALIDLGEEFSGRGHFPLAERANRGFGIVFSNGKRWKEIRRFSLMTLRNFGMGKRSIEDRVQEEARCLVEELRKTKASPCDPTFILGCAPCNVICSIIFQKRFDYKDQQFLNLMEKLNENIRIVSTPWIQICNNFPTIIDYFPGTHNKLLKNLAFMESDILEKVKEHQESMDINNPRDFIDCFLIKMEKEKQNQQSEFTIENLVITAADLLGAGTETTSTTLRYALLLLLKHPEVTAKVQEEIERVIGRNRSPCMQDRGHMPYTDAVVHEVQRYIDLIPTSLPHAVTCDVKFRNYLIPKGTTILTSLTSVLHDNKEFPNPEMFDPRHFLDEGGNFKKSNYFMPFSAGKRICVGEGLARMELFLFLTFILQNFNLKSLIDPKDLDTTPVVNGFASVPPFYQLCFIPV
T4 sequence (P10635 whole entry): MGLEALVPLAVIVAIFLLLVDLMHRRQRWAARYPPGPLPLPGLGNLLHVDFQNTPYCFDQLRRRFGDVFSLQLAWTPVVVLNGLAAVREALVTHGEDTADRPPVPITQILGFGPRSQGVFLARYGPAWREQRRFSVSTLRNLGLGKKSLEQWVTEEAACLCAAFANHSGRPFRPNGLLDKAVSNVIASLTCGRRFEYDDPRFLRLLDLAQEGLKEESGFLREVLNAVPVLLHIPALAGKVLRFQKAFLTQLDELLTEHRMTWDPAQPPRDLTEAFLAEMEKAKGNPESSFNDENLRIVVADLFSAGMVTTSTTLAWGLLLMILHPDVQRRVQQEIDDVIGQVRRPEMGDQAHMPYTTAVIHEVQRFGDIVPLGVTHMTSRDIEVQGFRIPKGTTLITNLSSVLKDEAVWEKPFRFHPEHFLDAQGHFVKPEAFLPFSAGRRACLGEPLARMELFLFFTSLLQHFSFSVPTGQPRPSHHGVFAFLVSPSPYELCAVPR
T1 sequence (P05177 whole entry): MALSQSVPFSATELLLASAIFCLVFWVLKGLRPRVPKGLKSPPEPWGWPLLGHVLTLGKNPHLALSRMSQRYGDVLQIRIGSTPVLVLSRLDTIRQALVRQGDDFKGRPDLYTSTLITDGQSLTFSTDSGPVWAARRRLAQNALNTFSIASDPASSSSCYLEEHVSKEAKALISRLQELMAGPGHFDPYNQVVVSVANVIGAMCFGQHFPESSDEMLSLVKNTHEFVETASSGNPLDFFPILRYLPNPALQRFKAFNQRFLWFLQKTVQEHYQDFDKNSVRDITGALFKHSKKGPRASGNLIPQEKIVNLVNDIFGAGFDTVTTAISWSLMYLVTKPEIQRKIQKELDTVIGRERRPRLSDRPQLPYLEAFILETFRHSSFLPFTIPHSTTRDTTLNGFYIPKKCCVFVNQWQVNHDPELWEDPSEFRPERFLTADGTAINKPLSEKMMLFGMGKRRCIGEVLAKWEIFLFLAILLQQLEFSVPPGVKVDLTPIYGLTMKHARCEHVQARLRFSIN

SMILES: CNC[C@@H](O)COc1ccc(Cl)c(-c2nc(-c3c(C)noc3C)c(C)c(N3CC4(CCN(C(=O)OC)CC4)C3)n2)c1 [EZM2302]
- CL in human hepatocytes (scaled) [1]: < 3 mL/min/kg
- CYP1A2 inhibition [2]: did not inhibit
- CYP2C19 inhibition [3]: did not inhibit
- CYP2C9 inhibition [4]: did not inhibit
- CYP2D6 inhibition [5]: did not inhibit
- CYP3A4 inhibition [6]: did not inhibit
- inhibition of kinases [7]: ≤ 30%
- CL (plasma clearance) ([8]; Sprague-Dawley rat, IV Bolus 2 mg/kg, 2 mg/kg): 90.5 ± 10.5 mL/min/kg
- Fa*Fg (fraction of the dose absorbed from the gastro-intestinal tract) ([8]; Sprague-Dawley rat, PO 10 mg/kg, JVC-PVC rat PK experiment, 10 mg/kg): 81% and 80.7%
- AUC(0-inf) [8, 10]: 487 ± 102 ng·h/mL
- AUC(0-t) [8, 10]: 453 ± 89.3 ng·h/mL
- Cmax [8, 10]: 113 ± 22.4 ng/mL
- Tmax [8, 10]: 2 h
- bioavailability [8, 10]: 26.2 ± 5.45%
- half-life [8, 10]: 6.64 ± 1.41 h
- AUC(0-inf) [8, 11]: 372 ± 43.3 ng·h/mL
- AUC(0-t) [8, 11]: 352 ± 30.6 ng·h/mL
- Vd [8, 11]: 35.6 ± 1.3 L/kg
- half-life [8, 11]: 6.21 ± 1.65 h
- clearance ([8]; male, Sprague-Dawley, rat, plasma, iv, 2 mg/kg, CL (plasma clearance), Sprague-Dawley rat, IV Bolus 2 mg/kg): 91 mL/min/kg
- IC50 ([9]; read-out: IC50, PABP1me2a): 9 nM
- IC50 ([9]; read-out: IC50, SmBme0): 31 nM
